Results on 4 compounds are retold here after patent publication US20080175891A1, “METHODS, COMPOSITIONS, AND FORMULATIONS FOR PREVENTING OR REDUCING ADVERSE EFFECTS IN A PATIENT” (priority 2007, published 2008).

Structures are written as SMILES.

By melting point is commonly meant the temperature of the solid-liquid transition.

Data set [1] has as its system mast cells. Put plainly: Mast cell activation / degranulation. The data set is classed as cell-based. The source says: As discussed in B. Benacerra and A. Unanue in Textbook of Immunology (Williams & Williams Baltimore/London, 1979), a key to suppressing allergic responses is to prevent the release of pharmacologically active substances by mast cells. Mast cells are large basophilic staining cells with extensive granules that contain substances, such as histamines, that are liberated by the mast cell during an allergic reaction and are required to support the allergic response. The release of these pharmacologically active substances present in mast cells is termed “degranulation.” Thus, chemicals that prevent degranulation should have a beneficial effect on reducing the severity of the allergic response. […] Mast cell activation also causes the release of prostaglandins and leukotrienses (non-preformed mediators) such as slow reactive substance of anaphylaxis.

Data set [2] deals with arrhythmias. Put plainly: Prophylactic effect of AICA riboside treatment on arrhythmias (Examples VI and XIV). Format: in vivo. The source says: Another disease caused by or able to cause restricted blood flow is myocardial arrhythmia. Although restricted blood flow can initiate the onset of arrhythmia, the precise cause is unknown. However, it is known that lipid peroxidation by oxygen radicals is arrhythmogenic. Since the latter are produced by granulocytes, the inhibition of granulocyte superoxide production by the method of the invention can be expected to control arrhythmia. In addition, mast cells are in higher concentration in areas of atherosclerosis. Suppression of their activation might reduce the release of other mediators of arrhythmias. Adenosine also has direct anti-arrhythmic effects on myocytes. […] Rapid firing of cells during arrhythmia causes increased net ATP catabolism and adenosine release.

In data set [3] the test system is seizures. The settings on record: experimental animal model; cited from earlier work.
For data set [4] the following is noted: human, in vivo. The source says:
Applicant also discovered that lower doses of AICA riboside were needed to achieve the desired blood concentration levels in anesthetized patients than in non-anesthetized patients. It appears that the dose needed in anesthetized patients may be about 20-50% less than the dose needed in non-anesthetized patients. Thus, a preferred dosage of AICA riboside (or prodrug) in a non-anesthetized patient or a patient anesthetized for a short time is larger than the preferred dosage for an anesthetized patient. Accordingly, dosages of from about 0.075 mg/kg/min to about 0.30 mg/kg/min are preferred in such cases, more preferably between about 0.10 mg/kg/min and about 0.15 mg/kg/min, and most preferably about 0.125 mg/kg/min.

Data set [5] concerns bronchospasm induced by antigen sensitization. Conditions: guinea pig; cited from earlier work.
For data set [6], the system named is patients with adenylosuccinase deficiency (autism). Put plainly: Therapeutic trials in patients with adenylosuccinase deficiency (autism) (Example X). Format: in vivo, human. The settings on record: oral. The procedure:
Conditions potentially associated with chronic low adenosine may also be treated by compounds of the invention. These pathologic states include autism, insomnia, cerebral palsy, schizophrenia, and other neuropsychiatric symptoms. It is anticipated that doses ranging from 0.1 mg/kg/day up to about 200 mg/kg/day will be beneficial.

Data set [7] concerns pentylene tetrazol-induced seizures. Put plainly: Pentylene tetrazol-induced seizures (Example XIII). The settings on record: in vivo. The source says:
The adenosine released from neuronal cells when they are stimulated and break down ATP during seizure (epileptic) activity normally will feedback and suppress this seizure (epileptic) activity.

For the compound `NC(=O)c1ncn([C@@H]2O[C@H](CO)[C@@H](O)[C@H]2O)c1N` [AICA riboside, 5-amino-1-β-D-ribofuranosyl-imidazole-4-carboxamide], in data set [1], the mast cell activation result is given as “suppress mast cell activation” and the mast cell degranulation entry is listed as “prevent mast cell degranulation”. Also, in data set [2], the “number of premature ventricular depolarizations” value was “decreased number” and the “number of ventricular tachycardia episodes” value is “decreased number”. In addition, in data set [3], the inhibition of seizures result was “inhibitor of seizures”. Besides, the “dose needed in anesthetized patients, less than in non-anesthetized patients” value in data set [4] is on record as 20-50%. Also, the anti-allergic actions result in data set [5] is recorded as “anti-allergic actions”. Also, the “clinical or biochemical side effects” value in data set [6] (5 mg/kg/day increased to 2×10 mg/kg/day) was “No clinical or biochemical side effects were observed”. The “behaviour during therapy as described by the parent” value in data set [6] (5 mg/kg/day increased to 2×10 mg/kg/day, both patients) was “more pleasantly active and more easy to handle during therapy”. For the same compound, the clinical improvement result in data set [6] (5 mg/kg/day increased to 2×5 and finally 2×10 mg/kg/day, two patients) was “clear-cut improvement in one of two patients”. In data set [7], the “incidence of pentylene tetrazol-induced seizures” value is “decreased incidence” and the “latency to pentylene tetrazol-induced seizures” value is recorded as “prolonged latency”.
Regarding `NC(=O)c1ncn([C@@H]2O[C@H](CO)[C@@H](O)[C@H]2O)n1` [ribavirin, 1-β-D-ribofuranosyl-1H-1,2,4-triazole-3-carboxamide], in data set [1], the mast cell activation entry is recorded as “suppress mast cell activation” and the mast cell degranulation result was “prevent mast cell degranulation”.
Compound `CC(=O)OC[C@H]1O[C@@H](c2nc(C(N)=O)c(N)[nH]2)[C@H](OC(C)=O)[C@@H]1OC(C)=O` [Compound No. 2, 5-Amino-(2,3,5-tri-O-acetyl-beta-D-ribofuranosyl)imidazole-4-carboxamide] had a melting point of 128 to 129 °C.
For `Nc1c(C(=O)NCCCCCCNC(=O)c2ncn([C@@H]3O[C@H](CO)[C@@H](O)[C@H]3O)c2N)ncn1[C@@H]1O[C@H](CO)[C@@H](O)[C@H]1O` [Compound No. 68, N,N′-bis-(5-amino-1-β-D-ribofuranosylimidazole-4-carbonyl)-1,6-diaminohexane], the melting point is 181 to 185 °C.
